Measured values reported in patent US20030215462A1, “Use of UGT inhibitors to increase bioavailability” (priority 2001, published 2003).

Tests used:
[1] = tested on: UGT enzymes of human liver microsomes; test: Inhibition of raloxifene glucuronidation (G1, G2) in human liver microsomes; assay type: biochemical; conditions: for % of control metabolism (SD, n = 3), raloxifene glucuronide G1 / % of control metabolism (SD, n = 3), raloxifene glucuronide G2: human liver microsomes 250 μg/ml, 15 min
Text: Compounds were eluted using a binary solvent gradient system. […] Solvent B was methanol. […] Detection was at 280 nm.

[2] = tested on: UGT enzymes of pooled human jejunum microsomes; test: Inhibition of 2ME2 glucuronidation (MG1) in pooled human jejunum microsomes; assay type: biochemical; conditions: jejunum HJ61, 2ME2 50 μM
Text: Compounds were eluted using a binary solvent gradient system where solvent A was dilute phosphoric acid (pH 3) and solvent B was 80:20 acetonitrile-methanol. […] Detection was at 280 nm.

[3] = inhibitor 25 μM, raloxifene 50 μM
[4] = inhibitor 50 μM, raloxifene 50 μM
[5] = inhibitor 100 μM, raloxifene 50 μM
[6] = inhibitor 500 μM, raloxifene 50 μM
[7] = liver lot 032101, inhibitor 50 μM
[8] = liver lot 062101, inhibitor 50 μM
[9] = liver lot 083000, inhibitor 50 μM
[10] = raloxifene 50 μM, inhibitor 25 μM
[11] = raloxifene 50 μM, inhibitor 50 μM
[12] = raloxifene 50 μM, inhibitor 100 μM

Compound	% of control metabolism (SD, n = 3), raloxifene glucuronide G1 [1, 3]	% of control metabolism (SD, n = 3), raloxifene glucuronide G1 [1, 4]	% of control metabolism (SD, n = 3), raloxifene glucuronide G1 [1, 5]	% of control metabolism (SD, n = 3), raloxifene glucuronide G1 [1, 6]	% of control metabolism (SD, n = 3), raloxifene glucuronide G2 [1, 3]	% of control metabolism (SD, n = 3), raloxifene glucuronide G2 [1, 4]	% of control metabolism (SD, n = 3), raloxifene glucuronide G2 [1, 5]	% of control metabolism (SD, n = 3), raloxifene glucuronide G2 [1, 6]	% of control metabolism, raloxifene G1 [1, 10]	% of control metabolism, raloxifene G2 [1, 10]	% of control metabolism, raloxifene G1 [1, 11]	% of control metabolism, raloxifene G2 [1, 11]	% of control metabolism, raloxifene G1 [1, 12]	% of control metabolism, raloxifene G2 [1, 12]	further results
O=C(O)c1cc(-c2ccc(F)cc2F)ccc1O [Diflunisal, reference compound]	63 (3) %	43 (1) %	30 (4) %	6 (1) %	66 (1) %	45 (2) %	34 (1) %	7 (1) %	63 (3) %	66 (1) %	43 (1) %	45 (2) %	30 (4) %	34 (1) %	% of control metabolism, raloxifene G1 [1, 7]: 52 (1) %; % of control metabolism, raloxifene G2 [1, 7]: 54 (0) %; % of control metabolism, raloxifene G1 [1, 8]: 67 (2) %; % of control metabolism, raloxifene G2 [1, 8]: 57 (2) %; % of control metabolism, raloxifene G1 [1, 9]: 43 (1) %; % of control metabolism, raloxifene G2 [1, 9]: 45 (2) %; residual metabolism (% of control), 2ME2 MG1 ([2]; inhibitor 50 μM): 91 (1) %; residual metabolism (% of control), 2ME2 MG1 ([2]; inhibitor 100 μM): 82 (2) %
CC(CCc1ccccc1)NCC(O)c1ccc(O)c(C(N)=O)c1 (centres unmarked) [Labetalol, labetalol]				104 (11) %				102 (4) %							
CCCOC(=O)c1cc(O)c(O)c(O)c1 [Propyl gallate]	58 (4) %	45 (6) %	48 (2) %	21 (1) %	60 (4) %	48 (6) %	52 (3) %	33 (2) %	58 (4) %	60 (4) %	45 (6) %	48 (6) %	48 (2) %	52 (3) %	
